In this test the target is T1, FAAH (Rattus norvegicus, UniProt P97612).
T1 construct: Preparation of Rat Brain Membranes Preparations (FAAH Enzyme Solution); from tissue; host or cells: rat cerebrum (brain membrane preparation)
T1 sequence (P97612 1-579): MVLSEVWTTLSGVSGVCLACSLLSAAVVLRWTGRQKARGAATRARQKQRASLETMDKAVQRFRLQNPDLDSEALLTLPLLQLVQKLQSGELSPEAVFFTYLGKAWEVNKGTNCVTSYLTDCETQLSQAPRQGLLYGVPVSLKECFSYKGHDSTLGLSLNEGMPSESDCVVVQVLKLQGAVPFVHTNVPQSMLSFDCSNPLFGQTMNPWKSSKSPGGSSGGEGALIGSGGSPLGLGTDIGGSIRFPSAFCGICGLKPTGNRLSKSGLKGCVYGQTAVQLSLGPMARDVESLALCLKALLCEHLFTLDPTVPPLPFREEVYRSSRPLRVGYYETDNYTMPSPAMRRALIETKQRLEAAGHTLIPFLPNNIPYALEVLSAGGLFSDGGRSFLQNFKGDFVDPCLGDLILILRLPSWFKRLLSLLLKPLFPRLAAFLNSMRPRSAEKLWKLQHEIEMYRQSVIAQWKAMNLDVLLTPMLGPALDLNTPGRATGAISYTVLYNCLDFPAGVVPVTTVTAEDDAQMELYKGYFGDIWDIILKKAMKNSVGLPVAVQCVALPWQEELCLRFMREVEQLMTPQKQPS
The experiment in a line: Determination of FAAH inhibitory activity in rat (rat brain membrane preparations, [3H]-anandamide hydrolysis). The following applies: rat brain membrane preparations; for inhibition at 0.1 µM: 100 nM test substance, read-out: FAAH Inhibition, Inhibition Rate at 100 nM; for IC50: test substance 0.1 nM to 1 μM, read-out: FAAH Inhibition IC50. The class given is biochemical. In short, it runs like this: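 Rat cerebrum membranes (100 μg/mL protein) preincubated 10 min at 37 °C with compound (1% DMSO) in pH 7.6 Tris buffer with 1.5% BSA. Substrate 2 nM [3H]-anandamide plus 2 μM anandamide added for 10 min at 37 °C. [3H]-ethanolamine in the aqueous phase after chloroform/methanol extraction was scintillation counted; IC50 over 0.1 nM–1 μM.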

The structures appear in SMILES notation.

In general, inhibition refers to the relative decrease from the control value, in per cent. One may read the IC50 as the concentration at which inhibition is half-maximal. `Cn1c(=O)n(C(=O)N2CCC2)c2nc(COc3ccccc3Cl)ncc21` [Example 427]: the inhibition at 0.1 µM was found to be 92% and the half-maximal inhibitory concentration (IC50) was determined as 19 nM. On to `Cn1c(=O)n(C(=O)N2CCC2)c2nc(COc3ccc(Cl)cc3)ncc21` [Example 428], for which the inhibition at 0.1 µM stood at 123% and the IC50 turned out to be 10 nM. The corresponding values for `CN(C)C(=O)n1c(=O)n(C)c2cnc(COc3ccccc3C(F)(F)F)nc21` [Example 429] are 84% and 23 nM. In the same order, the values of `CN(C)C(=O)n1c(=O)n(C)c2cnc(COc3ccccc3OC(F)(F)F)nc21` [Example 430] are 80% and 24 nM. The corresponding values for `CN(C)C(=O)n1c(=O)n(C)c2cnc(COc3cccc(OC(F)F)c3)nc21` [Example 431] are 60% and 94 nM. `Cn1c(=O)n(C(=O)N2CCC2)c2nc(COc3ccc(C(F)(F)F)cc3)ncc21` [Example 434]: the inhibition at 0.1 µM is 95% and the IC50 turned out to be 8 nM. The corresponding values for `Cn1c(=O)n(C(=O)N2CCC2)c2nc(COc3ccccc3OC(F)(F)F)ncc21` [Example 435] are 94% and 12 nM.

As for `Cn1c(=O)n(C(=O)N2CCC2)c2cnc(COc3cccc(OC(F)F)c3)nc21` [Example 437], the inhibition at 0.1 µM was determined as 96% and the IC50 came out at 11 nM.

With `COCc1ncc2c(n1)n(C)c(=O)n2C(=O)N1CC(c2ccccc2)C1` [Example 438, 2-(methoxymethyl)-9-methyl-7-[(3-phenylazetidin-1-yl)carbonyl]-7,9-dihydro-8H-purine-8-one], the inhibition at 0.1 µM was determined as 86% and the 50% inhibitory concentration (IC50) was found to be 34 nM. In the same order, the values of `COCc1ncc2c(n1)n(C)c(=O)n2C(=O)N1CC(c2ccc(F)cc2)C1` [Example 439, 7-{[3-(4-Fluorophenyl)azetidin-1-yl]carbonyl}-2-(methoxymethyl)-9-methyl-7,9-dihydro-8H-purine-8-one] are 104% and 5 nM. `COCc1ncc2c(n1)n(C)c(=O)n2C(=O)N1CC(c2cccc(F)c2)C1` [Example 440, 7-{[3-(3-Fluorophenyl)azetidin-1-yl]carbonyl}-2-(methoxymethyl)-9-methyl-7,9-dihydro-8H-purine-8-one]: the inhibition at 0.1 µM was 88% and the IC50 was found to be 21 nM. For `COCc1ncc2c(n1)n(C)c(=O)n2C(=O)N1CC(c2ccccc2F)C1` [Example 441, 7-{[3-(2-Fluorophenyl)azetidin-1-yl]carbonyl}-2-(methoxymethyl)-9-methyl-7,9-dihydro-8H-purine-8-one], the inhibition at 0.1 µM was determined as 74% and the IC50 was found to be 37 nM. In the same order, the values of `COCc1ncc2c(n1)n(C)c(=O)n2C(=O)N1CC(c2cccc(C(F)(F)F)c2)C1` [Example 443, 2-(Methoxymethyl)-9-methyl-7-({[3-(3-trifluoromethyl)phenyl]azetidin-1-yl}carbonyl)-7,9-dihydro-8H-purine-8-one] are 98% and 7 nM.

For `COCc1ncc2c(n1)n(C)c(=O)n2C(=O)N1CC(c2ccccc2Cl)C1` [Example 453, 7-{[3-(2-Chlorophenyl)azetidin-1-yl]carbonyl}-2-(methoxymethyl)-9-methyl-7,9-dihydro-8H-purine-8-one], the inhibition at 0.1 µM is 90% and the 50% inhibitory concentration (IC50) stood at 12 nM. The corresponding values for `COCc1ncc2c(n1)n(C)c(=O)n2C(=O)N1CC(c2ccc(F)cc2F)C1` [Example 454, 7-{[3-(2,4-Difluorophenyl)azetidin-1-yl]carbonyl}-2-(methoxymethyl)-9-methyl-7,9-dihydro-8H-purine-8-one] are 89% and 6 nM.

Regarding `COCc1ncc2c(n1)n(C)c(=O)n2C(=O)N1CC(c2ccc(F)c(C)c2)C1` [Example 455, 7-{[3-(4-Fluoro-3-methylphenyl)azetidin-1-yl]carbonyl}-2-(methoxymethyl)-9-methyl-7,9-dihydro-8H-purine-8-one], the inhibition at 0.1 µM was 104% and the IC50 turned out to be 1 nM. The corresponding values for `COCc1ncc2c(n1)n(C)c(=O)n2C(=O)N1CC(c2ccc(OCc3ccccc3)cc2)C1` [Example 456, 7-({3-[4-(Benzyloxy)phenyl]azetidin-1-yl}carbonyl)-2-(methoxymethyl)-9-methyl-7,9-dihydro-8H-purine-8-one] are 99% and 1 nM. The corresponding values for `COCc1ncc2c(n1)n(C)c(=O)n2C(=O)N1CC(c2ccc(OC(F)(F)F)cc2)C1` [Example 458, 2-(Methoxymethyl)-9-methyl-7-({3-[4-(trifluoromethoxy)phenyl]azetidin-1-yl}carbonyl)-7,9-dihydro-8H-purine-8-one] are 120% and 1 nM.

Regarding `COCc1ncc2c(n1)n(C)c(=O)n2C(=O)N1CC(c2cccc(OC)c2)C1` [Example 459, 2-(Methoxymethyl)-7-{[3-(3-methoxyphenyl)azetidin-1-yl]carbonyl}-9-methyl-7,9-dihydro-8H-purine-8-one], the inhibition at 0.1 µM was found to be 108% and the IC50 turned out to be 9 nM. As to `CCOCc1ncc2c(n1)n(C)c(=O)n2C(=O)N1CC(c2ccccc2)C1` [Example 460, 2-(Ethoxymethyl)-9-methyl-7-[(3-phenylazetidin-1-yl)carbonyl]-7,9-dihydro-8H-purine-8-one], the inhibition at 0.1 µM worked out at 108% and the IC50 amounted to 11 nM.

As to `CCOCc1ncc2c(n1)n(C)c(=O)n2C(=O)N1CC(c2cccc(F)c2)C1` [Example 462, 2-(Ethoxymethyl)-7-{[3-(3-fluorophenyl)azetidin-1-yl]carbonyl}-9-methyl-7,9-dihydro-8H-purine-8-one], the inhibition at 0.1 µM amounted to 113% and the 50% inhibitory concentration (IC50) worked out at 10 nM. Take `CCOCc1ncc2c(n1)n(C)c(=O)n2C(=O)N1CC(c2ccc(OCC)cc2)C1` [Example 463, 2-(Ethoxymethyl)-7-{[3-(4-ethoxyphenyl)azetidin-1-yl]carbonyl}-9-methyl-7,9-dihydro-8H-purine-8-one]: the inhibition at 0.1 µM is 136% and the 50% inhibitory concentration (IC50) came out at 10 nM. In the same order, the values of `CCOCc1ncc2c(n1)n(C)c(=O)n2C(=O)N1CC(c2ccccc2F)C1` [Example 465, 2-(Ethoxymethyl)-7-{[3-(2-fluorophenyl)azetidin-1-yl]carbonyl}-9-methyl-7,9-dihydro-8H-purine-8-one] are 96% and 10 nM.

For the molecule `COCc1ncc2c(n1)n(C)c(=O)n2C(=O)N1CC[C@@H](Oc2ccccc2F)C1` [Example 474], the inhibition at 0.1 µM is 71% and the concentration for half-maximal inhibition (IC50) amounted to 54 nM. As for `COCc1ncc2c(n1)n(C)c(=O)n2C(=O)N1CC[C@@H](Oc2cccc(C)c2)C1` [Example 475], the inhibition at 0.1 µM is 46%. As for `COCc1ncc2c(n1)n(C)c(=O)n2C(=O)N1CC[C@@H](Oc2ccccc2C)C1` [Example 476], the inhibition at 0.1 µM is 76% and the IC50 worked out at 57 nM.

With `COCc1ncc2c(n1)n(C)c(=O)n2C(=O)N1CC[C@H](Oc2ccccc2)C1` [Example 477], the inhibition at 0.1 µM came out at 88% and the IC50 is 26 nM. In the same order, the values of `COCc1ncc2c(n1)n(C)c(=O)n2C(=O)N1CC(Oc2ccccc2C)C1` [Example 478] are 46% and 118 nM. In the same order, the values of `COCc1ncc2c(n1)n(C)c(=O)n2C(=O)N1CC(Oc2ccccc2F)C1` [Example 479, 7-{[3-(2-Fluorophenoxy)azetidin-1-yl]carbonyl}-2-(methoxymethyl)-9-methyl-7,9-dihydro-8H-purine-8-one] are 50% and 101 nM. As to `COCc1ncc2c(n1)n(C)c(=O)n2C(=O)N1CC[C@@H](Oc2ccc(F)cc2)C1` [Example 480, 7-{[(3R)-3-(4-Fluorophenoxy)pyrrolidin-1-yl]carbonyl}-2-(methoxymethyl)-9-methyl-7,9-dihydro-8H-purine-8-one], the inhibition at 0.1 µM was found to be 88% and the IC50 came to 83 nM. Regarding `COCc1ncc2c(n1)n(C)c(=O)n2C(=O)N1CC[C@H](Oc2ccc(F)cc2)C1` [Example 481], the inhibition at 0.1 µM is 102% and the half-inhibitory concentration (IC50) was found to be 3 nM. In the same order, the values of `COCc1ncc2c(n1)n(C)c(=O)n2C(=O)N1CC[C@H](Oc2cccc(F)c2)C1` [Example 482, 7-{[(3S)-3-(3-Fluorophenoxy)pyrrolidin-1-yl]carbonyl}-2-(methoxymethyl)-9-methyl-7,9-dihydro-8H-purine-8-one] are 104% and 10 nM. On to `COCc1ncc2c(n1)n(C)c(=O)n2C(=O)N1CC[C@H](Oc2ccccc2F)C1` [Example 483, 7-{[(3S)-3-(2-Fluorophenoxy)pyrrolidin-1-yl]carbonyl}-2-(methoxymethyl)-9-methyl-7,9-dihydro-8H-purine-8-one], for which the inhibition at 0.1 µM was found to be 110% and the 50% inhibitory concentration (IC50) worked out at 10 nM.

The record behind these values is US8735406B2, “8-oxodihydropurine derivative” (Dainippon Sumitomo Pharma Co., Ltd., priority 2009, dated 2014).
